# Marks after values point to notes of the source that are not given here.
# Key:
# [1] = test system: influenza virus A/H1N1/NIB23; experiment: fetuin binding inhibition test (FBI-test), influenza virus receptor binding inhibition assay
# [2] = test system: influenza virus A/Н3N2/29/90; experiment: as above
# [3] = test system: influenza virus A/H5N2; format: binding
# [4] = association in aqueous solution by dynamic light scattering (DLS); format: physicochemical
# [5] = association (tectomer formation) on mica surface by scanning force microscopy (SFM); format: physicochemical; details: 0.1 mg/mL; for tectomer layer height on mica: рН 6.5, tapping mode in air
# [6] = FBI-test, value in parentheses for monomeric sialoside
compound,measurement,setting,value
"CC(=O)N[C@H]1[C@H]([C@H](O)[C@H](O)CO)O[C@](OC[C@H]2O[C@@H](O[C@H]3[C@H](O)[C@@H](NC(C)=O)C(O)O[C@@H]3CO)[C@H](O)[C@@H](O)[C@H]2O)(C(=O)O)C[C@@H]1O (some centres unmarked) [6’SLN, Neu5Acα2-6Galβ1-4GlcNAcβ]",IC50,[1]; [6],150 µM
same,Relative activity,"[1]; inhibition of binding of fetuin peroxidase conjugate to immobilized virus, related to monomer 6’SLN = 1",1
CC(=O)N[C@H]1[C@H]([C@H](O)[C@H](O)CO)O[C@@](OCc2ccccc2)(C(=O)O)C[C@@H]1O [Neu5AcαOBn],IC50,[2]; [6],150 µM
same,Relative activity,"[2]; inhibition of binding of fetuin peroxidase conjugate to virus immobilized on plastic, related to monomer Neu5AcαOBn = 1",1
"CC(=O)N[C@H]1[C@H]([C@H](O)[C@H](O)CO)O[C@@](O[C@H]2[C@@H](O)[C@@H](CO)O[C@@H](O[C@H]3[C@H](O)[C@@H](O)[C@H](O)O[C@@H]3CO)[C@@H]2O)(C(=O)O)C[C@@H]1O [3’SL, Neu5Acα2-3Galβ1-4Glcβ]",IC50,[3],150 µM
same,Relative activity,[3],1(150)^b
Н-Gly4NH(СН2)10NHGly4-Н,size of associates stable in aqueous media,"[4]; neutral and basic media (рН 6.5 and 8.5, after NaHCO3 or Na2CO3), concentration ≤0.1 mg/mL",800–1200 nm
same,tectomer layer height on mica,[5],3.7–4.0 nm
Н-Gly4NH(СН2)10NHGly4-Н·2HCl,concentration at which the peptide associates in acidic solution,"[4]; aqueous solution, рН < 5",≥ 500 µg/mL
Н-Gly5-NH(СН2)2NH-Gly5-Н,tectomer layer height on mica,[5],3.3 nm
same,planar dimensions of islet-like tectomers on mica,"[5]; рН 6.5, texp = 10 min, tapping mode in air",500–700 nm
